In patent US20230226013A1, “COMPOSITION AND METHOD FOR TREATING CANCER” (Carmel-Haifa University Economic Corp Ltd., priority 2019, published 2023):

Experiments:
[1] = system: HPAF-II and PL45 human pancreatic cancer cells; assay: Annexin-V/PI assay, induction of apoptosis; type: cell-based; conditions: low doses, 4 hours of exposure
Protocol: Particularly, Cell death was analyzed by staining the cells with FITC-labeled Annexin V and propedium iodide (PI) using an Annexin V-FITC apoptosis detection kit, (MBL, Nagoya, Japan), according to the manufacturer’s instructions.

[2] = system: HPAF-II and PL45 human pancreatic cancer cells; assay: XTT assay, cell viability / proliferation; type: cell-based
Protocol: Reference is now made to FIG. 4, presenting the effect of Striatal C on the viability of HPAF-II and PL45 human pancreatic cancer cells, in comparison to the effect of the Cyathus striatus CBS 126585 extract on the same cells, wherein the measurements of the effects are based on an XTT assay. Particularly, cell proliferation was determined using the sodium 3′-[1-(phenylaminocarbonyl)-3,4-tetrazolium]-bis (4-methoxy-6-nitro) benzene sulfonic acid hydrate (XTT) assay, according to the manufacturer’s instructions (Biological Industries, Beit Haemek, Israel).

[3] = Stability of the isolated compound (solid state; in dichloromethane solution); type: physicochemical; conditions: solid state conditions at -20° C.
Protocol: 2. The isolated compound was stable and pure (purity > 95% by HPLC) at solid state conditions at -20° C.
4. During NMR experiments observed partially isomerization of isolated compound. The dissolving in dichloromethane at 20 mg/ml concentration leads to steady state between major and minor isomers with ratio ~75:25. HPLC analyses of NMR solution show only one peak of isolated compound.

SMILES | induction of apoptosis [1] | most effective concentration ([2]; control 0 µg/ml) [µg/mL] | effect on cell viability ([2]; low doses, 4 hours of exposure) | stability at solid state [3]
CC(C)C1=C2C3=CC=C(C=O)[C@@H]4C(O[C@@H]5OC[C@@H](O)C(=O)[C@@]54O)[C@]3(C)CC[C@@]2(C)CC1 (stereo partly shown) [Striatal C] | induction of apoptosis | 10 | profound decrease in cell viability | 
CC(C)C1=C2[C@H]3[C@@H](O)C=C(C=O)[C@@H]4C(O[C@@H]5OC[C@@H](O)C(=O)[C@@]54O)[C@]3(C)CC[C@@]2(C)CC1 (stereo partly shown) [isolated compound] |  |  |  | stable
